According to ChEMBL document CHEMBL5532661, “Discovery of a Novel Glucagon-like Peptide-1 (GLP-1) Analogue from Bullfrog and Investigation of Its Potential for Designing GLP-1-Based Multiagonists” (J Med Chem, 2024):
Calls of active or inactive are those of the source. The calls are words filed in the database; no cut-off is given here. Numbered stars: 1 amine (or outer) side, 2 acyl side, 3 side chain; on linkers, the order of the positions; unused ones are H or OH. Side chains are listed from the residue outwards. Peptide text beside a SMILES is read from it. * marks the point of attachment. γGlu = O=C(O)[C@H](CCC(=O)[*:2])N[*:1]; Palmitoyl = CCCCCCCCCCCCCCCC(=O)*

Experiments:
[1] = test system: Mus musculus; experiment: Reduction in total cholesterol in DIO mouse at 30 nmol/kg, sc treated twice a day measured after 21 days; format: functional, organism-based; conditions: time 21.0 day
[2] = target: T1, Glucagon-like peptide 1 receptor (Homo sapiens, UniProt P43220); experiment: Agonist activity at human GLP-1 receptor expressed in HEK293 cells assessed as cAMP level measured after 60 mins by HTRF based assay; format: functional, cell-based
[3] = test system: Mus musculus; experiment: Hypoglycemic effect in ICR mouse treated with 3 g/kg glucose assessed as reduction in blood glucose level at 100 nmol/kg, sc measured upto 120 mins by acute glucose lowering test; format: functional, organism-based
[4] = test system: Mus musculus; experiment: Reduction in serum AST level in DIO mouse at 30 nmol/kg, sc treated twice a day measured after 21 days; format: functional, organism-based; conditions: time 21.0 day
[5] = test system: Mus musculus; experiment: Reduction in blood glucose level in non-fasting DIO mouse at 30 nmol/kg, sc treated twice a day measured after 21 days by glucose tolerance test; format: functional, organism-based; conditions: time 21.0 day
[6] = test system: Mus musculus; experiment: Hypoglycemic effect in ICR mouse treated with 3 g/kg glucose assessed as reduction in blood glucose level at 10 nmol/kg, sc measured upto 120 mins by acute glucose lowering test; format: functional, organism-based
[7] = test system: Mus musculus; experiment: Anorexigenic effect in ICR mouse assessed as decrease in food intake at 30 nmol/kg, sc measured at 48 hrs by acute food intake study; format: functional, organism-based
[8] = target: T1, Glucagon-like peptide 1 receptor; experiment: Agonist activity at human GLP-1 receptor expressed in HEK293 cells assessed as cAMP level by measuring relative percent (GLP-1 EC50/compound EC50) measured after 60 mins by HTRF based assay relative to GLP-1; format: functional, cell-based; conditions: filed as agonist
[9] = test system: Mus musculus; experiment: Reduction in total fat mass in DIO mouse at 30 nmol/kg, sc treated twice a day measured after 21 days; format: functional, organism-based; conditions: time 21.0 day
[10] = test system: Mus musculus; experiment: Reduction in serum triglyceride in DIO mouse at 30 nmol/kg, sc treated twice a day measured after 21 days; format: functional, organism-based; conditions: time 21.0 day
[11] = test system: Mus musculus; experiment: Anorexigenic effect in sc dosed ICR mouse assessed as decrease in food intake measured upto 72 hrs by acute food intake study; format: functional, organism-based; conditions: dose 10-100 nmol/kg
[12] = test system: Mus musculus; experiment: Anorexigenic effect in ICR mouse assessed as decrease in food intake at 10 nmol/kg, sc measured upto 72 hrs by acute food intake study; format: functional, organism-based
[13] = target: T1, Glucagon-like peptide 1 receptor; experiment: Potency index, ratio of Semaglutide EC50 to test compound EC50 for agonist activity at human GLP-1 receptor expressed in HEK293 cells assessed as cAMP level measured after 60 mins by HTRF based assay; format: functional, cell-based; conditions: filed as agonist
[14] = target: T2, Glucagon receptor (Homo sapiens, UniProt P47871); experiment: Agonist activity at human GCGR expressed in HEK293 cells assessed as cAMP level measured after 60 mins by HTRF based assay; format: functional, cell-based
[15] = test system: Mus musculus; experiment: Hypoglycemic effect in ICR mouse treated with 3 g/kg glucose assessed as reduction in blood glucose level at 30 nmol/kg, sc measured upto 120 mins pretreated with GLP-1R antagonist by OGTT; format: functional, organism-based
[16] = target: T3, Glucagon-like peptide 1 receptor (Mus musculus) (UniProt O35659); experiment: Potency index, ratio of GLP-1 EC50 to test compound EC50 for agonist activity at mouse GLP-1 receptor expressed in HEK293 cells assessed as cAMP level measured after 60 mins by HTRF based assay; format: functional, cell-based; conditions: filed as agonist
T3 sequence (whole entry): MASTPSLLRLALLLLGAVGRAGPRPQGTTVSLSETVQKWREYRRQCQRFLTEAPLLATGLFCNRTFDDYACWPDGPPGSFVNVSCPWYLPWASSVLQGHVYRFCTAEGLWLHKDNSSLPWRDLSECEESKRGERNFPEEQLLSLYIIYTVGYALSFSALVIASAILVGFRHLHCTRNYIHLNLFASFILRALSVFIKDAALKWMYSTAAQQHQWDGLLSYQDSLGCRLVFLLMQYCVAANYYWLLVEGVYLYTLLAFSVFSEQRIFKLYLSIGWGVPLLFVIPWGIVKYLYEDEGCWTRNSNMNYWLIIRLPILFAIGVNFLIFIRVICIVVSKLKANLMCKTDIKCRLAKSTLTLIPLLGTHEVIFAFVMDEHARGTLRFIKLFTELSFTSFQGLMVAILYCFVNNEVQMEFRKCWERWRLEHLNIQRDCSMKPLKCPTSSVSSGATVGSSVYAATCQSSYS

[17] = test system: Mus musculus; experiment: Reduction in hepatic lipid content in DIO mouse at 30 nmol/kg, sc treated twice a day measured after 21 days by H and E staining based assay; format: functional, organism-based; conditions: time 21.0 day
[18] = test system: Mus musculus; experiment: Reduction in feed intake in DIO mouse at 30 nmol/kg, sc treated twice a day measured after 21 days; format: functional, organism-based; conditions: time 21.0 day
[19] = target: Glucagon receptor (Mus musculus) (UniProt Q61606); experiment: Agonist activity at mouse GCGR receptor expressed in HEK293 cells assessed as cAMP level measured after 60 mins by HTRF based assay; format: functional, cell-based; conditions: filed as agonist
[20] = test system: Mus musculus; experiment: Antihyperglycemic effect in DIO mouse assessed as antihyperglycemic duration by measuring blood glucose at 30 nmol/kg, sc measured after 12 to 24 hrs by hypoglycemic duration assay; format: functional, organism-based; conditions: time 12-24 hrs
[21] = target: T3, Glucagon-like peptide 1 receptor (Mus musculus); experiment: Agonist activity at mouse GLP-1 receptor expressed in HEK293 cells assessed as cAMP level measured after 60 mins by HTRF based assay; format: functional, cell-based; conditions: filed as agonist
[22] = test system: Mus musculus; experiment: Reduction in serum ALT level in DIO mouse at 30 nmol/kg, sc treated twice a day measured after 21 days; format: functional, organism-based; conditions: time 21.0 day
[23] = test system: Mus musculus; experiment: Antihyperglycemic effect in DIO mouse assessed as antihyperglycemic duration by measuring blood glucose at 30 nmol/kg, sc administered twice daily measured after 72 hrs by hypoglycemic duration assay; format: functional, organism-based
[24] = test system: Mus musculus; experiment: Anorexigenic effect in ICR mouse assessed as decrease in food intake at 30 nmol/kg, sc measured upto 72 hrs by acute food intake study; format: functional, organism-based
[25] = target: T2, Glucagon receptor; experiment: Potency index, ratio of glucagon EC50 to test compound EC50 for agonist activity at human GCGR expressed in HEK293 cells assessed as cAMP level measured after 60 mins by HTRF based assay; format: functional, cell-based; conditions: filed as agonist
[26] = target: T2, Glucagon receptor; experiment: Agonist activity at human GCGR expressed in HEK293 cells assessed as cAMP level by measuring relative percent (glucagon EC50/compound EC50) measured after 60 mins by HTRF based assay relative to glucagon; format: functional, cell-based; conditions: filed as agonist
[27] = test system: Mus musculus; experiment: Reduction in body weight in DIO mouse at 30 nmol/kg, sc treated twice a day measured after 21 days; format: functional; set-up: scale not given: the % may be the effect or the level left; conditions: time 21 day
[28] = test system: Mus musculus; experiment: Antihyperglycemic effect in DIO mouse assessed as prolonged antihyperglycemic duration by measuring blood glucose at 100 nmol/kg, sc; format: functional, organism-based

T1 sequence (P43220 whole entry): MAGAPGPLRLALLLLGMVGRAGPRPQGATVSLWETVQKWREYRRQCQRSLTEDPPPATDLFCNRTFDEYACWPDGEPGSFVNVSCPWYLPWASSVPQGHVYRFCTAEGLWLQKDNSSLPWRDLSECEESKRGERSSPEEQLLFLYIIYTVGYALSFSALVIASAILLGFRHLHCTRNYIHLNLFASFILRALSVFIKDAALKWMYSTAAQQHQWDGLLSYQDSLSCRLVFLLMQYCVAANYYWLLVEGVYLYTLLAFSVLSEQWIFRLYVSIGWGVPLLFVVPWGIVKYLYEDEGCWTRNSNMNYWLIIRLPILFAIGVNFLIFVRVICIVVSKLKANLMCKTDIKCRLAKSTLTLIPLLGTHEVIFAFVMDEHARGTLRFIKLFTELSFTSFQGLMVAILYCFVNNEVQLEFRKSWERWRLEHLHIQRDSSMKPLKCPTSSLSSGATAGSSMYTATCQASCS
T2 sequence (P47871 whole entry): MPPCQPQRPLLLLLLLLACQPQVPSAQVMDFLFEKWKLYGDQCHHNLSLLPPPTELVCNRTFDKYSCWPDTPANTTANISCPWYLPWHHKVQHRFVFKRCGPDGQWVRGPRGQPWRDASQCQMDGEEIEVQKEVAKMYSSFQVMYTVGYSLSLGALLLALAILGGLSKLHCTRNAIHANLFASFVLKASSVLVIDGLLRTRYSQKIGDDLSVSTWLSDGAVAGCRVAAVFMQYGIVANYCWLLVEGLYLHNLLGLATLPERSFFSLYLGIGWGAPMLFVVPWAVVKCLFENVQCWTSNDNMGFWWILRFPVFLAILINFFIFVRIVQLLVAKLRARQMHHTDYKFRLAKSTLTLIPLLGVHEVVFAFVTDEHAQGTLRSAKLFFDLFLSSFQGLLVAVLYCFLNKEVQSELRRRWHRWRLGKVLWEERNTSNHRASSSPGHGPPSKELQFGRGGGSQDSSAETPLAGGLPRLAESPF
Chain of Glucagon receptor (Mus musculus) (Q61606 whole entry): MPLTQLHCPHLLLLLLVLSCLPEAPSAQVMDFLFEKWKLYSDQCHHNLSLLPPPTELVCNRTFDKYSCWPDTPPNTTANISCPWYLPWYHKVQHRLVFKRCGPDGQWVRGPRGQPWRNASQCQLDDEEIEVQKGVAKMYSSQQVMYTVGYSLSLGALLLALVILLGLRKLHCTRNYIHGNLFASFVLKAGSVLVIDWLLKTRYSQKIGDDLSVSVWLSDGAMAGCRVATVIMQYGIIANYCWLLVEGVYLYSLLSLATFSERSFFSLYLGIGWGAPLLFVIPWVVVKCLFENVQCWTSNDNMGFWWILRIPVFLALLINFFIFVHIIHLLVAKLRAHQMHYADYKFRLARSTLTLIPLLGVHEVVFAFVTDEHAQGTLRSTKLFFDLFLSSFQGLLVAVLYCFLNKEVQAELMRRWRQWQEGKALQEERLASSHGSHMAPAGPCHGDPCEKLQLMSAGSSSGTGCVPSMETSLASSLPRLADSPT

In the case of CCCCCCCCCCCCCCCC(=O)N[C@@H](CCC(=O)NCCCC[C@H](NC(=O)[C@H](Cc1ccc(O)cc1)NC(=O)[C@H](CCCCN)NC(=O)[C@H](CO)NC(=O)[C@H](CCSC)NC(=O)[C@H](CC(=O)O)NC(=O)[C@H](CO)NC(=O)[C@@H](NC(=O)[C@H](Cc1ccccc1)NC(=O)[C@@H](NC(=O)CNC(=O)[C@H](CCC(N)=O)NC(=O)[C@H](CO)NC(=O)[C@@H](N)Cc1c[nH]cn1)[C@@H](C)O)[C@@H](C)O)C(=O)N[C@@H](CC(=O)O)C(=O)N[C@@H](CO)C(=O)N[C@@H](CCCNC(=N)N)C(=O)N[C@@H](CCCNC(=N)N)C(=O)N[C@@H](C)C(=O)N[C@@H](CCC(N)=O)C(=O)N[C@@H](CC(=O)O)C(=O)N[C@@H](Cc1ccccc1)C(=O)N[C@H](C(=O)N[C@@H](CC(=O)O)C(=O)N[C@@H](Cc1c[nH]c2ccccc12)C(=O)N[C@@H](CC(C)C)C(=O)N[C@@H](CCCCN)C(=O)N[C@@H](CC(N)=O)C(=O)NCC(=O)NCC(=O)N1CCC[C@H]1C(=O)N[C@@H](CO)C(=O)N[C@@H](CO)C(=O)NCC(=O)N[C@@H](C)C(=O)N1CCC[C@H]1C(=O)N1CCC[C@H]1C(=O)N1CCC[C@H]1C(=O)N[C@@H](CO)C(N)=O)C(C)C)C(=O)O (H-HSQGTFTSDMSKYK([γGlu-Palmitoyl])DSRRAQDFVDWLKNGGPSSGAPPPS-NH2), the Activity [1] is reported as “Active”, the EC50 [2] is reported as 0.011 nM and the Activity [3] is reported as “Active”. For the same molecule, the Activity [4] was “Active”, the Activity [5] was “Active” and the Activity [6] was “Active”. The Activity [7] was “Active”, the Activity [8] was 482% and the Activity [9] was “Active”. For the same molecule, the Activity [10] was “Active”, the Activity [11] was “Dose-Dependent Effect” and the Activity [12] was “Active”. For the same molecule, the Ratio EC50 [13] was 3, the EC50 [14] was 0.027 nM and the Activity [15] was “inactive”. For the same molecule, the Ratio EC50 [16] was 3, the Activity [17] was “Active” and the Activity [18] was “Active”. The Activity [19] was “Active”, the Activity [20] was “Active” and the Activity [21] was “Active”. For the same molecule, the Activity [22] was “Active”, the Activity [23] was “Active” and the Activity [24] was “Active”. The Ratio EC50 [25] was 3, the Activity [26] was 341% and the Activity [27] was 30.6%. The Activity [28] was “Active”.
